The test system of assay [1] is type 2 herpes simplex virus, strain G (ATCC VR-734). The experiment in a line: Lethal herpes infection in mice by vaginal infection, protective effect of gels. Type of assay: in vivo. The source says:
Eight groups of animals, containing 15 subjects each, were formed to conduct the experiment.
Groups 1-6: infected with type 2 herpes simplex virus and administered gels I-VI (experimental groups 1-6).
Group 8: infected with type 2 herpes simplex virus and not administered any pharmaceutical preparations (virus control).
Type 2 herpes simplex virus, strain G (ATCC VR-734, USA), was used in the experiment. The virus was cultivated in the T98G cell culture (human brain glioblastoma), then adapted to mice by two consecutive intracerebral passages. To prepare the final infective material, the animals were intracerebrally infected with brain tissue homogenate from the second passage; on the 4th day post infection, the animals were euthanized, their brain was extracted, homogenized, used to infect Vero cells, and incubated for 48 hours at 37° C. under 5% CO2 using the culture fluid, in which the infectious titer of the virus was previously determined, as the infective material.
The murine vaginal epithelium was injured with a scarifier for vaginal smears, after which the animals were infected with 30 μl of the virus at a 10^6 TCID50 dose. The examined gels were administered to mice in […] per the following regimen: 0.05 ml once a day 1, 2, 3, 4, and 5 days post infection.
The animals were followed for 18 days; their mortality was recorded daily. Cessation of mortality was defined by the absence of mice with signs of herpetic vaginitis (vaginal discharge) and complications thereof (posterior limb paresis). Based on the mortality data for each group, the mortality rate (Mr, ratio of the fallen animals at the time of control to the total number of infected animals in the group), protective index (IP, ratio of the difference in the percentage of mortality in the control and experimental groups to the percentage of mortality in the control group), and average life span of the animals (ALS) per each day of the experiment were calculated.
The protective effect of the peptide-containing gels was assessed by the reduction in the specific mortality and increase in the life span of the animals compared to the control group that wasn't treated.

The test system of assay [2] is human herpes simplex virus type 2 (HPV-2). The conditions noted are these: male rabbits, local application; cited from earlier work.
The conditions of assay [3]: guinea pigs, HPV-2; cited from earlier work.
The test system of assay [4] is HPV-2. As to conditions: guinea pigs; cited from earlier work.
The mark [5] stands for this setting: n = 15, vaginal HSV-2 10^6 TCID50, gel 0.05 ml once a day days 1-5, followed 18 days.
The mark [6] stands for this setting: n = 15, vaginal HSV-2, followed 18 days.

This is an account of results in US20200046800A1, “BIOCIDAL AGENT” ("VERTA RESEARCH-PRODUCTION COMPANY" LTD, priority 2017, published 2020).

For `Nc1nc2c(ncn2COCCO)c(=O)[nH]1` [Acyclovir], in assay [1] (setting [5]), the “Number of dead animals” value is recorded as 4 and the “Number of survived animals” value came out at 11. For the same compound, in assay [1] (setting [6]), the “ALS (average life span)” value is recorded as 13.9 24 hrs and the Mortality is 26.7%. Further, in assay [1] (versus virus control, n = 15), the “Increase in ALS” value worked out at 2.6.

For the compound “NH2-His-Gly-Val-Ser-Gly-His-Gly-Gln-His-Gly-Val-His-Gly-COOH (H-HGVSGHGQHGVHG-OH) [Peptide 1]”, in assay [2], the “Length of the primary genital herpes outbreak” value is reported as “significantly shortened” and the “Viral load on the body” value is “reduced”. For the same compound, the “Discharge of the virus from the lesions” value in assay [3] is listed as “statistically significant reduction”. Moreover, the Disease duration result in assay [4] is on record as “statistically significant reduction”.
